Experimental data reported in paper PMC8847695 (Frontiers in Chemistry, 2022).

How the values were obtained:
Format in all cases: binding
Conditions in all cases: 1 = hit, 0 = no hit
[1] = biological target: T1, DOT1L (1-416) (Homo sapiens, UniProt Q8TEK3); assay: STD-NMR fragment screening, DOT1L
T1 construct: made in house; host or cells: E. coli BL21 (DE3) pLysS
How it was run: (§1)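 Saturation-transfer difference NMR was run at 25°C and 700 MHz with 20 µM protein, two fragments at 1 mM each, and 10% DMSO-d6. On-resonance saturation was at 0.5–0.6 ppm and off-resonance at 40 ppm, with a 3 s Gaussian-pulse train. A hit required a difference-spectrum peak at least three times the local noise.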

[2] = biological target: T2, IDO1 (1-435) (Homo sapiens, UniProt P14902); assay: STD-NMR fragment screening, IDO1
T2 construct: His-tag of pET15b with TEV site (thrombin site replaced) (cleaved yes); made in house; host or cells: E. coli Rosetta 2 (DE3) pLysS
T2 sequence (P14902 whole entry, the tested form may be a part): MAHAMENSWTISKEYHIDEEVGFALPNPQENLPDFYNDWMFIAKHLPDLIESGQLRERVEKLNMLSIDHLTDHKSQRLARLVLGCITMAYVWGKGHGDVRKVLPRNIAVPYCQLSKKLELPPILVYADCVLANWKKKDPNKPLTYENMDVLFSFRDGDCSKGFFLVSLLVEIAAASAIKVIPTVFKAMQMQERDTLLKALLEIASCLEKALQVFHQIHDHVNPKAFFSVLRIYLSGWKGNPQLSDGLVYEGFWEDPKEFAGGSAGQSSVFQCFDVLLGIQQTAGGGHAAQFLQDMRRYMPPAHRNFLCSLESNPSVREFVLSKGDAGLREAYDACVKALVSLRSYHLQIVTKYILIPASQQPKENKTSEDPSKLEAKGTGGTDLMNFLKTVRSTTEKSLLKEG
How it was run: as §1

[3] = biological target: T3, CAMK1G (1-320) (Homo sapiens, UniProt Q96NX5); assay: STD-NMR fragment screening, CAMK1G
T3 construct: made in house; host or cells: E. coli BL21 (DE3) pLysS
T3 sequence (Q96NX5 1-320): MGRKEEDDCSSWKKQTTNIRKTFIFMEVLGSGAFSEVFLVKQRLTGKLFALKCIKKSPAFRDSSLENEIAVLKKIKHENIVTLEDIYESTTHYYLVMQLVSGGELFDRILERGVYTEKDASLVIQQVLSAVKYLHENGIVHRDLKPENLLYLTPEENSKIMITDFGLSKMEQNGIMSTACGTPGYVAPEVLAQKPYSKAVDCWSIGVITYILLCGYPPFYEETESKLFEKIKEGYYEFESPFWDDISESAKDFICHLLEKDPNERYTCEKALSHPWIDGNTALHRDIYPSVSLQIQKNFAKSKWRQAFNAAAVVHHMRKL
How it was run: as §1

[4] = biological target: AAK1 (121-471) (Homo sapiens, UniProt Q2M2I8); assay: STD-NMR fragment screening, AAK1
AAK1 (121-471), sequence (Q2M2I8 46-315 limits assumed): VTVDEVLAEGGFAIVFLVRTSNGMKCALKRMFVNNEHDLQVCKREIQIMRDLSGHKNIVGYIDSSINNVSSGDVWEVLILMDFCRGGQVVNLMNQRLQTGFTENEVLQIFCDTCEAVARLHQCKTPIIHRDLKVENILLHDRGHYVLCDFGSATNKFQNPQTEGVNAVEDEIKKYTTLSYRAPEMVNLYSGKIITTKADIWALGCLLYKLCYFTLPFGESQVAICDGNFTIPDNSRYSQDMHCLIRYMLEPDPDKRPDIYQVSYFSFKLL
How it was run: as §1

T1 sequence (Q8TEK3 1-416): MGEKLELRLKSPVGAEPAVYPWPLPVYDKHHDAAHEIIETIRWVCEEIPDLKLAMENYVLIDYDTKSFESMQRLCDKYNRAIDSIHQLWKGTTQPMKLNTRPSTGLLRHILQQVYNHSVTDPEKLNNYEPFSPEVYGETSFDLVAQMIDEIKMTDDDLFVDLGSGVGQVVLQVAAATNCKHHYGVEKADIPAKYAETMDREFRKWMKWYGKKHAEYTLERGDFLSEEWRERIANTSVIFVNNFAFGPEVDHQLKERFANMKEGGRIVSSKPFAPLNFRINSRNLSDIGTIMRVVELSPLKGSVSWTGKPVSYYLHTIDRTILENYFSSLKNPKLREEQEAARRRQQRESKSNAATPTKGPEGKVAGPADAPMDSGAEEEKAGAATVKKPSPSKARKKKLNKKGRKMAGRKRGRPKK

Row | Structure (SMILES) | DOT1L (STD-NMR hit flag) [1] | IDO1 (STD-NMR hit flag) [2] | CAMK1G (STD-NMR hit flag) [3] | AAK1 (STD-NMR hit flag) [4]
1 | NC(=O)c1cc2c(nc1Cl)CCC2 [Fragment B02291222] | 0 | 0 | 0 | 0
2 | CS(=O)(=O)c1ncc(Cl)c(C(=O)O)n1 [Fragment B02291223] | 0 | 0 | 0 | 0
3 | Clc1ncccn1 [Fragment B02291224] | 0 | 0 | 0 | 0
4 | CCOC(Cn1cc(Cl)cn1)OCC [Fragment B02291225] | 0 | 1 | 0 | 0
5 | NC1CCSc2ccc(Cl)cc21 (stereo not shown) [Fragment B02291226] | 0 | 0 | 0 | 0
6 | Cc1ccc(C(N)=O)c(Cl)n1 [Fragment B02291227] | 0 | 0 | 0 | 1
7 | O=C(O)c1csc(Cl)n1 [Fragment B02291228] | 0 | 0 | 0 | 0
8 | Clc1cccc2nnnn12 [Fragment B02291229] | 0 | 0 | 0 | 0
9 | Nc1c(Cl)ncnc1NC1CC1 [Fragment B02291230] | 0 | 0 | 1 | 1
10 | Nc1ccc(Br)cn1 [Fragment B02291232] | 0 | 0 | 0 | 1
11 | OCc1c(Cl)nc2sccn12 [Fragment B02291233] | 0 | 0 | 0 | 1
12 | Cn1c(Cl)c(C#N)c(=O)n(C)c1=O [Fragment B02291234] | 1 | 1 | 1 | 1
13 | OCc1cc2c(cc1Cl)OCO2 [Fragment B02291235] | 0 | 0 | 1 | 0
14 | O=S(=O)(c1ccc(Cl)s1)N1CCNCC1 [Fragment B02291236] | 0 | 0 | 0 | 0
15 | CC(C)c1nsc(Cl)n1 [Fragment B02291237] | 0 | 0 | 0 | 0
16 | Nc1ncc(F)cc1I [Fragment B02291238] | 0 | 0 | 0 | 0
17 | O=C(O)c1ccnc(Cl)c1 [Fragment B02291239] | 0 | 0 | 0 | 0
18 | Clc1cnccn1 [Fragment B02291240] | 0 | 0 | 0 | 0
19 | Clc1ccc(CN2CCNCC2)s1 [Fragment B02291241] | 0 | 0 | 0 | 0
